Test results: PubChem BioAssay AID1053155 (Broad Institute, 2014)

Target: Low-density lipoprotein receptor (Homo sapiens) (UniProt P01130)
Test: LDLR protein level induction, dose response, orthogonal assay for Trib1 inducer project, cell-based, HepG2, ELISA, plate reader, cherry-pick (AID 1053155)
Conditions: 24 h; for fold induction: measured here: max LDLR protein fold induction, stronger effect = higher value

Low-density lipoprotein receptor (Homo sapiens), sequence (P01130 whole entry, looked up): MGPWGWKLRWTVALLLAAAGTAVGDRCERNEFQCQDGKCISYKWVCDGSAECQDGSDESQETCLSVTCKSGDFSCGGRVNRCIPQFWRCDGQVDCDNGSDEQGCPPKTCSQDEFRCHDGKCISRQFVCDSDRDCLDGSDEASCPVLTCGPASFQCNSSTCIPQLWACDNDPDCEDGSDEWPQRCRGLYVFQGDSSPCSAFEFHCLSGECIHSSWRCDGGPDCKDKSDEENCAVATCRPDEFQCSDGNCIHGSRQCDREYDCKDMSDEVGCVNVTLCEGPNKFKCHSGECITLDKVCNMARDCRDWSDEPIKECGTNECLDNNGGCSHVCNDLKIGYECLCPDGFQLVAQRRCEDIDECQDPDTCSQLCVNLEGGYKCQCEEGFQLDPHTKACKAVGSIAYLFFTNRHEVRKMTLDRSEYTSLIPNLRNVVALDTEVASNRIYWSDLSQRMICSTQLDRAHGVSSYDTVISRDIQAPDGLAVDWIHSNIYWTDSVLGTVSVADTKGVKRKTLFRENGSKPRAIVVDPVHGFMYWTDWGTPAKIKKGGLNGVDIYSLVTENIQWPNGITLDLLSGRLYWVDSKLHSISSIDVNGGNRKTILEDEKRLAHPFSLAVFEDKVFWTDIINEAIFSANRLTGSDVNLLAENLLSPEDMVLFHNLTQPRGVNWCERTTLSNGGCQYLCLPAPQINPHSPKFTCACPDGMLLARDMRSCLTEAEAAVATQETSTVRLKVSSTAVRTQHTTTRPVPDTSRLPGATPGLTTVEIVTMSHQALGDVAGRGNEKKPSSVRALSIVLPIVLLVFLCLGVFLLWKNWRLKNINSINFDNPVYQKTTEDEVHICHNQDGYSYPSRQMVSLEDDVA

| AC50 [µM] | fold induction | Structure (SMILES) |
| --- | --- | --- |
| 0.55 | 4.6 | CN1C(=O)c2cc(NC(=O)c3ccc(C(F)(F)F)cc3)ccc2OC[C@@H]2O[C@H](CC(=O)NC3Cc4ccccc4C3)CC[C@@H]21 |
| 18 | 3.3 | CN1C(=O)c2cc(NC(=O)c3ccc(C(F)(F)F)cc3)ccc2OC[C@@H]2O[C@@H](CC(=O)NC3Cc4ccccc4C3)CC[C@@H]21 |
